Patent US9521850B2 (University of Florida Research Foundation, Incorporated, priority 2012, dated 2016)
In brackets after ≈: the same amount, converted by molar mass.

Tests used:
A. tumefaciens = assay: microbe, parasite or virus in culture; type: cell-based; details: Agrobacterium tumefaciens, 24 h
Rhizobium etli = assay: microbe, parasite or virus in culture; type: cell-based
Sinorhizobium meliloti = assay: microbe, parasite or virus in culture; type: cell-based
Bradyrhizobium japonicum = assay: microbe, parasite or virus in culture; type: cell-based
Mesorhizobium loti = assay: microbe, parasite or virus in culture; type: cell-based
[1] = system: Agrobacterium tumefaciens; assay: microbe, parasite or virus in culture; type: cell-based
Xanthomonas citri = assay: microbe, parasite or virus in culture; type: cell-based, Xanthomonas citri subsp. citri
SecA of Ca. L. asiaticus = SecA of Ca. L. asiaticus (Candidatus Liberibacter asiaticus, UniProt A0ABM5NFG5); assay: biochemical
Liberibacter crescens = assay: microbe, parasite or virus in culture; type: cell-based

Row | Compound | MBC (Rhizobium etli; 24 hrs) [µg/mL] | MIC (Rhizobium etli; 24 hrs) [µg/mL] | MBC (Rhizobium etli; 120 hrs) [µg/mL] | MIC (Rhizobium etli; 120 hrs) [µg/mL] | MBC (Sinorhizobium meliloti) [µg/mL] | MIC (Sinorhizobium meliloti) [µg/mL] | MBC (Bradyrhizobium japonicum; 24 hrs) [µg/mL] | MIC (Bradyrhizobium japonicum; 24 hrs) [µg/mL] | MBC (Bradyrhizobium japonicum; 120 hrs) [µg/mL] | MIC (Bradyrhizobium japonicum; 120 hrs) [µg/mL] | MBC (Mesorhizobium loti) [µg/mL] | MIC (Mesorhizobium loti) [µg/mL] | MBC [1] [µg/mL] | MIC [1] [µg/mL] | MBC (Xanthomonas citri) [µg/mL] | MIC (Xanthomonas citri) [µg/mL] | MBC (Liberibacter crescens; 24 h) [µg/mL] | MIC (Liberibacter crescens; 24 h) [µg/mL] | MBC (Liberibacter crescens; 120 h) [µg/mL] | MIC (Liberibacter crescens; 120 h) [µg/mL] | also measured
1 | COc1cc(-c2cc(-c3ccccc3)nc3sc(C(=O)O)c(N)c23)cc(OC)c1OC [Compound C17, 3-amino-6-phenyl-4-(3,4,5-trimethoxy-phenyl)thieno [2,3-b]pyridine-2-carboxylic acid] | 64 (≈ 147 µM) | 32 (≈ 73.3 µM) | 64 (≈ 147 µM) | 32 (≈ 73.3 µM) | 32 (≈ 73.3 µM) | 16 (≈ 36.7 µM) | 32 (≈ 73.3 µM) | 16 (≈ 36.7 µM) | 64 (≈ 147 µM) | 32 (≈ 73.3 µM) | 32 (≈ 73.3 µM) | 16 (≈ 36.7 µM) | 64 (≈ 147 µM) | 64 (≈ 147 µM) | 32 (≈ 73.3 µM) | 16 (≈ 36.7 µM) | 16 (≈ 36.7 µM) | 16 (≈ 36.7 µM) | 32 (≈ 73.3 µM) | 32 (≈ 73.3 µM) | MBC (A. tumefaciens): 256 µg/mL (≈ 586 µM); IC50 (SecA of Ca. L. asiaticus): 920 nM
2 | O=C1CC(c2ccccc2)CC2=C1C(c1cccs1)Nc1ccc(C(=O)c3ccccc3)cc1N2 (centres unmarked) [SA8, 7-Benzoyl-3-phenyl-11-(2-thienyl)-2,3,4,5,10,11-hexahydro-1H-dibenzo[b,e] [1,4]diazepin-1-one] | 16 (≈ 33.6 µM) | 8 (≈ 16.8 µM) | 32 (≈ 67.1 µM) | 16 (≈ 33.6 µM) | 32 (≈ 67.1 µM) | 16 (≈ 33.6 µM) | 16 (≈ 33.6 µM) | 8 (≈ 16.8 µM) | 32 (≈ 67.1 µM) | 32 (≈ 67.1 µM) | 32 (≈ 67.1 µM) | 16 (≈ 33.6 µM) | 128 (≈ 269 µM) | 32 (≈ 67.1 µM) | 64 (≈ 134 µM) | 32 (≈ 67.1 µM) | 16 (≈ 33.6 µM) | 16 (≈ 33.6 µM) | 32 (≈ 67.1 µM) | 32 (≈ 67.1 µM) | –
3 | COc1ccc(NC(=O)C2(N(C(=O)c3ccc(-n4cnnn4)cc3)c3ccc(OC)cc3)CCCCC2)cc1 [SSC8, N-(4-methoxy-phenyl)-N-{1-[(4-methoxy-phenyl)carbamoyl]cyclohexyl}-4-(1H-tetrazol-1-yl)benzamide] | 32 (≈ 60.8 µM) | 16 (≈ 30.4 µM) | 64 (≈ 122 µM) | 32 (≈ 60.8 µM) | 32 (≈ 60.8 µM) | 16 (≈ 30.4 µM) | 16 (≈ 30.4 µM) | 8 (≈ 15.2 µM) | 32 (≈ 60.8 µM) | 16 (≈ 30.4 µM) | 32 (≈ 60.8 µM) | 16 (≈ 30.4 µM) | 64 (≈ 122 µM) | 32 (≈ 60.8 µM) | 64 (≈ 122 µM) | 32 (≈ 60.8 µM) | 16 (≈ 30.4 µM) | 16 (≈ 30.4 µM) | 32 (≈ 60.8 µM) | 32 (≈ 60.8 µM) | –
4 | CCOc1ccc(C2Nc3ccc(C(=O)c4ccccc4)cc3NC3=C2C(=O)CCC3)cc1 (centres unmarked) [SA7, 7-Benzoyl-11-(4-ethoxy-phenyl)-2,3,4,5,10,11-hexahydro-1H-dibenzo[b,e] [1,4]diazepin-1-one] | 16 (≈ 36.5 µM) | 16 (≈ 36.5 µM) | 32 (≈ 73 µM) | 32 (≈ 73 µM) | 32 (≈ 73 µM) | 16 (≈ 36.5 µM) | 32 (≈ 73 µM) | 32 (≈ 73 µM) | 32 (≈ 73 µM) | 32 (≈ 73 µM) | 32 (≈ 73 µM) | 16 (≈ 36.5 µM) | 64 (≈ 146 µM) | 16 (≈ 36.5 µM) | 64 (≈ 146 µM) | 32 (≈ 73 µM) | 16 (≈ 36.5 µM) | 16 (≈ 36.5 µM) | 32 (≈ 73 µM) | 32 (≈ 73 µM) | –
5 | CC(C)[C@H](NC(=O)c1ccccc1)C(=O)Nc1cccc(-n2cnnn2)c1 [SA3, N-[(2S)-3-Methyl-1-oxo-1-{[3-(1H-tetrazol-1-yl)phenyl]amino}-2-butanyl] benzamide] | 32 (≈ 87.8 µM) | 32 (≈ 87.8 µM) | 64 (≈ 176 µM) | 64 (≈ 176 µM) | 64 (≈ 176 µM) | 32 (≈ 87.8 µM) | 32 (≈ 87.8 µM) | 16 (≈ 43.9 µM) | 64 (≈ 176 µM) | 32 (≈ 87.8 µM) | 32 (≈ 87.8 µM) | 16 (≈ 43.9 µM) | 64 (≈ 176 µM) | 32 (≈ 87.8 µM) | 128 (≈ 351 µM) | 64 (≈ 176 µM) | 16 (≈ 43.9 µM) | 8 (≈ 22 µM) | 32 (≈ 87.8 µM) | 16 (≈ 43.9 µM) | –
6 | Nc1c(C(=O)O)sc2nc(-c3ccccc3)cc(-c3ccc(F)cc3)c12 [SA2, 3-Amino-4-(4-fluorophenyl)-6-phenyl-thieno[2,3-b]pyridine-2-carboxylic acid] | 32 (≈ 87.8 µM) | 16 (≈ 43.9 µM) | 64 (≈ 176 µM) | 32 (≈ 87.8 µM) | 32 (≈ 87.8 µM) | 16 (≈ 43.9 µM) | 64 (≈ 176 µM) | 32 (≈ 87.8 µM) | 128 (≈ 351 µM) | 64 (≈ 176 µM) | 32 (≈ 87.8 µM) | 16 (≈ 43.9 µM) | 64 (≈ 176 µM) | 32 (≈ 87.8 µM) | 64 (≈ 176 µM) | 32 (≈ 87.8 µM) | 16 (≈ 43.9 µM) | 16 (≈ 43.9 µM) | 32 (≈ 87.8 µM) | 32 (≈ 87.8 µM) | –
